Data set [1] in a line: HPLC RCP of 99mTc-depreotide with hydrophilic thioether additives (Example 8). Conditions: for effect on 99mTc-labelled peptide radiolabelling yield or stability: 99mTc-depreotide; for 3.5 hr RCP / 6.5 hr RCP / Initial RCP: 99mTc-depreotide kit, additive 4 mg, heated prep. Type of data set: physicochemical. How it is done:
Each hydrophilic thioether was dissolved in water made up at 40 mg/mL and adjusted to pH 7 with HCl or NaOH. […] To the control vials were added 100 μL water.

Data set [2] can be described thus: HPLC RCP of 99mTc-depreotide kits with L-methionine (Example 2). Conditions: formulated kits stored under normal conditions (≦−10° C.). As for the experimental part:
Lyophilized kit vials were prepared containing depreotide, L-methionine (Met), and other components as described in Table 3. All formulations were adjusted to pH 7.4 prior to lyophilization.
The lyophilized kits were radiolabelled with ^99mTc by reconstitution with 1.0 mL technetium ^99mTc sodium pertechnetate (Technelite®) containing approximately 50 mCi ^99mTc and heating in a boiling water bath for 10 minutes. Some of the formulations were also radiolabelled in a room temperature preparation (allowed to stand at rom temperature 30 minutes following reconstitution).

The nature of data set [3]: HPLC RCP of 99mTc-labelled bisamine bisthiol non-peptide chelator with L-methionine (Example 7). The class given is physicochemical. From the text: The non-peptide chelator was radiolabelled with ^99mTc in the presence and absence of L-methionine using the placebo vial heated preparation procedure as described in Example 6.
A short description of data set [4]: HPLC RCP of 99mTc-labelled glycoprotein IIb/IIIa receptor-binding peptide with L-methionine (Example 5). The class given is physicochemical. As for the experimental part:
Lyophilized kit vials were prepared containing the peptide (50 μg), sodium glucoheptonate dihydrate (10 mg), stannous chloride dihydrate (50 μg), and edetate disodium dihydrate (100 μg). The formulation was adjusted to pH 7.4 prior to lyophilization.
The lyophilized kits were radiolabelled with ^99mTc in the presence and absence of L-methionine. […] Both vials were then reconstituted with 1.0 mL technetium ^99mTc sodium pertechnetate (Technelite®) containing approximately 50 mCi ^99mTc and allowed to incubate for 30 minutes at room temperature.

Data set [5] is described as follows: HPLC RCP of 99mTc-labelled benzodiazepinedione derivative kits with L-methionine (Example 4). Conditions: formulated kits. The class given is physicochemical. As for the experimental part: L-methionine was tested for its ability to stabilize a ^99mTc-labelled glycoprotein IIb/IIIa receptor-binding benzodiazepinedione derivative 1-[(carboxyglycyl-glycyl-glycyl-cysteinamide)methyl]-4-(2-carboxyethyl)-7-[(4-amidinophenyl)methyl]-3,4-dihydro-1H-1,4-benzodiazepine-2,5-dione trifluoroacetate, having the structure. [drawing 15]
All formulations were adjusted to pH 7.4 prior to lyophilization.
The lyophilized kits were radiolabelled with ^99mTc by reconstitution with 1.0 mL technetium ^99mTc sodium pertechnetate (Technelite®) containing approximately 50 mCi ^99mTc and heating in a boiling water bath for 10 minutes.

For the molecule `CCSCCN` [2-(Ethylthio)ethylamine], in data set [1], the “effect on 99mTc-labelled peptide radiolabelling yield or stability” value is “increase the radiolabelling yield and the stability”; the “3.5 hr RCP” value is 94.2; the “6.5 hr RCP” value was found to be 93.3; the “Initial RCP” value is listed as 92.8.

Consider `CSCCC=O` [3-(methylthio)propionaldehyde, reference compound], for which the “effect on 99mTc-labelled peptide radiolabelling yield or stability” value in data set [1] is reported as “no effect”.

On to `CSCC(O)CO` (stereo not shown) [3-Methylthio-1,2-propanediol, 3-methylthio-1,2-propanediol], for which, in data set [1], the “effect on 99mTc-labelled peptide radiolabelling yield or stability” value is “increase the radiolabelling yield and the stability”; the “3.5 hr RCP” value amounted to 84.0; the “6.5 hr RCP” value is 80.9; the “Initial RCP” value stood at 89.1.

Turning to `CSCC[C@H](N)C(=O)O` [L-methionine], in data set [2], the “effect on radiolabelling yield and stability of 99mTc-depreotide” value is “increases the radiolabelling yield and the stability”. For the same molecule, the “effect on radiolabelling yield and stability of a 99mTc-labelled non-peptide chelator” value in data set [3] is “increases the radiolabelling yield and the stability”. Besides, the “effect on radiolabelling yield and stability of the 99mTc-peptide” value in data set [4] was “increases the radiolabelling yield and the stability”. Moreover, in data set [1], the “3.5 hr RCP” value is on record as 90.4, the “6.5 hr RCP” value worked out at 89.3 and the “Initial RCP” value was 95.0. In addition, in data set [5], the “effect on radiolabelling yield and stability of the 99mTc-labelled benzodiazepinedione derivative” value was “increases the radiolabelling yield and the stability”.

In the case of `C[S+]([O-])CC[C@H](N)C(=O)O` (stereo partly shown) [Methionine sulfoxide, reference compound], the “effect on 99mTc-labelled peptide radiolabelling yield or stability” value in data set [1] was “no effect”.

Turning to `CSCC[C@H](N)CO` [Methioninol, methioninol], in data set [1], the “effect on 99mTc-labelled peptide radiolabelling yield or stability” value is “increase the radiolabelling yield and the stability”; the “3.5 hr RCP” value stood at 93.9; the “6.5 hr RCP” value came out at 90.7; the “Initial RCP” value is on record as 94.1.

Consider `CS(=O)(=O)CC[C@H](N)C(=O)O` [methionine sulfone, reference compound], for which the “effect on 99mTc-labelled peptide radiolabelling yield or stability” value in data set [1] is recorded as “no effect”.

These data come from patent US20040058984A1, “Stabilization of radiopharmaceutical compositions using hydrophilic thioethers and hydrophilic 6-hydroxy chromans” (priority 2003, published 2004).
